Where two headings read alike, the source gives them in different places.
What was measured:
[1] = test system: human primary tumor cells; test: Inhibition of primary tumor cell cultures vs constitutively activated form of NK1 receptor (Example 7; tumor type per table line); format: cell-based
Protocol: (§1) Cell cultures. To obtain tumor cells from human primary tumors we used the method described in De Bari et al. (De Bari et al. 2001). Briefly, small pieces of the tumors were digested into a hyaluronidase solution (Sigma-Aldrich, USA) at a concentration of 1 mg/ml during 15 minutes at 37°C, and then they were treated with 6 mg/ml of collagenase type IV (Invitrogen) during 2 hours at 37°C. Consecutively, cells were washed, and resuspended in the DMEM culture medium with high concentration of glucose (Dulbecco's Modified Eagle's Medium, Invitrogen) supplemented with 1% of antibiotics-antimycotics (Invitrogen) and with 1% of sodium pyruvate (Invitrogen), and the cells were seeded in culture slides at a concentration of 10.000 cells per square centimeter. When cells reached confluence, the adherent cells were separated using sterile trypsin at 0,5% (Invitrogen) and they were used among passages 3 and 9. For the assays shown next, tumor cells were seeded on slides at a concentration of 25.000 cells per well. A total of 6 wells containing the tumor cells were used as survival control. […] All the cultures were kept during 48 hours and later on recollected for their analysis.
It was determined the increase or not in proliferation with the exposition to substance P (NK1 receptor agonist), so that for the cell cultures which grew independently from the exposition to substance P, it was considered that they have constitutively activated forms of such receptor, because a mitogenic signal independently from the presence of the agonist was transmitted. It was checked that all tumor cells presented integrity in the MAP Kinases and PI3 Kinases pathways, as wel as in the K-ras gene, and the protein derived from it.

Leukemia T = test: Inhibition of primary tumor cell cultures (48 hours) vs NK1 receptor immunostaining (Example 1); format: cell-based; conditions: Homo sapiens, 1 micromolar, read-out: Percentage of inhibition of cell cultures
Protocol: as §1
(§2) Immunohistochemistry techniques. The presence of NK1 receptors was also analyzed using immunohistochemistry techniques. Briefly, a sample of each of the cultures of the cell lines used in the present invention, was centrifuged (5 minutes at 1.500 rpm) and the pellet obtained was dehydrated using increasing concentrations of ethanol and, finally, xylol. Then, said dehydrated samples were embedded in paraffin, creating a block of cells. Such paraffin blocks were cut with a microtome at 5 microns thickness, and were placed on microscope slides adequate to perform immunohistochemistry techniques. Consecutively, they were de-paraffinized by immersing them in xylol, to be finally hydrated using a solution containing decreasing concentrations of ethanol, and finally submerged them into water. […] After this, the samples were left to cool down at room temperature for 10 minutes. The endogenous peroxidase activity was blocked with 3% peroxide of hydrogen for 30 minutes at room temperature. After washing the samples with 0.05 M of Tris buffer, they were incubated with 10% non-immune pork serum at for 30 minutes at room temperature. To analyze the expression of NK1 receptors, the cellular samples were incubated in the presence of anti-NK1 antibodies (S8305, Sigma-Aldrich) diluted 1:1000, overnight at 4°C. Afterwards, the samples were washed in Tris buffer 0.05 M at room temperature. The next step was the addition of Envision System-HRP (Dako) reagents for 30 minutes at room temperature. Then, the samples were washed again in Tris buffer 0.05 M and the immunoreactivity was visualized through light microscopy with a chromogenic solution containing 3,3'-Diaminobenzidine (DAB+; Dako, USA). To differentiate the cell nuclei, they were slightly stained with hematoxylin. As negative control, it was used samples not incubated with the primary antibody anti-NK1, which was replaced by non-immune serum. All the samples were evaluated.
(§3) To value the immunostaining in each of the cases six cuts were performed to be analyzed by the immunohistochemistry technique. In each of the six cuts, it was counted cells in 20 fields (magnification 400x) using an Olympus microscope (model CX31). In each field it was counted the total number of cells and the number of cells presenting immunostaining, calculating afterwards the percentage of cells which presented immunostaining.

Non Hodgkin Lymphoma T = test: as above; format: cell-based; conditions: Homo sapiens, 1 micromolar, read-out: Percentage of inhibition of cell cultures
Protocol: as §1, §2, §3

Ovarian carcinoma = test: as above; format: cell-based; conditions: Homo sapiens, 1 micromolar, read-out: Percentage of inhibition of cell cultures
Protocol: as §1, §2, §3

Melanoma = test: as above; format: cell-based; conditions: Homo sapiens, 1 micromolar, read-out: Percentage of inhibition of cell cultures
Protocol: as §1, §2, §3

[2] = test system: Urinary bladder carcinoma; test: as above; format: cell-based; conditions: Homo sapiens, 1 micromolar, read-out: Percentage of inhibition of cell cultures
Protocol: as §1, §2, §3

Glioma (astrocytoma) = test: Inhibition of primary tumor cell cultures vs Kras mutation (Example 2); format: cell-based, human; conditions: 100 micromolar; for inhibition at 100 µM: Homo sapiens, read-out: Percentage of inhibition of cell cultures; for Percentage of inhibition of cell cultures: Glioma (astrocytoma)
Protocol: as §1
In each case the presence or not of mutations in K-ras gene was determined.
To determine the existence of mutations in the K-ras gene DNA from cancer tumor cells was extracted from samples obtained from the different cancer tumor cells, using DNA extraction kits from Takara (Madison, WI, US) or Ambion (Huntingdon, Cambridgeshire, United Kingdom), following the manufacturer's instructions, and as it has been previously published (Di Fiore F, et al. 2007). Consecutively it was analyzed by sequencing the exon 2 of the KRAS gene, , by means of PCR amplification from previously extracted cancer tumor DNA, using the following sense primer (SEQ ID NO. 15): 5'-[sequence]-3' and anti-sense primer (SEQ ID NO. 16): 5'-[sequence]-3'. After the purification using the Qiagen extraction kit, the PCR products were sequenced using the Big Dye Terminator Kit V3.1 (Applied Biosystems, Foster City, CA, U.S.) and an ABI Prism 377 or 3100 DNA sequencer (Applied Biosystems). The presence of a heterozygous mutation in the KRAS gene in cancer tumor cells of the cultures was defined as the appearance of a mutant peak of a height of at least a third of the wild type. All the sequence analysis were executed at least twice in two independent PCR.
The antibody against NK1 receptor (Table 16) was used at 1/50 concentration. The percentages of inhibition are expressed in percentage of variation in relation to control ± standard deviation.

[3] = NK1 receptor immunostaining Group 1 (less than 20% of the cells)
[4] = NK1 receptor immunostaining Group 2 (20-80% of the cells)
[5] = NK1 receptor immunostaining Group 3 (more than 80% of the cells)
[6] = NK1 receptor immunostaining Intensity grade 1
[7] = NK1 receptor immunostaining Intensity grade 2
[8] = NK1 receptor immunostaining Intensity grade 3
[9] = Cases with Kras non-mutated (wild type)

Row | Structure (SMILES) | inhibition at 1 µM (Leukemia T; [3]) [%] | inhibition at 1 µM (Leukemia T; [4]) [%] | inhibition at 1 µM (Leukemia T; [5]) [%] | inhibition at 1 µM (Leukemia T; [6]) [%] | inhibition at 1 µM (Leukemia T; [7]) [%] | inhibition at 1 µM (Leukemia T; [8]) [%] | inhibition at 1 µM (Non Hodgkin Lymphoma T; [3]) [%] | inhibition at 1 µM (Non Hodgkin Lymphoma T; [4]) [%] | inhibition at 1 µM (Non Hodgkin Lymphoma T; [5]) [%] | inhibition at 1 µM (Non Hodgkin Lymphoma T; [6]) [%] | inhibition at 1 µM (Non Hodgkin Lymphoma T; [7]) [%] | inhibition at 1 µM (Non Hodgkin Lymphoma T; [8]) [%] | inhibition at 1 µM (Ovarian carcinoma; [3]) [%] | inhibition at 1 µM (Ovarian carcinoma; [4]) [%] | inhibition at 1 µM (Ovarian carcinoma; [5]) [%] | inhibition at 1 µM (Ovarian carcinoma; [6]) [%] | inhibition at 1 µM (Ovarian carcinoma; [7]) [%] | inhibition at 1 µM (Ovarian carcinoma; [8]) [%] | inhibition at 1 µM (Melanoma; [3]) [%] | inhibition at 1 µM (Melanoma; [4]) [%] | also measured
1 | C[C@@H](O[C@H]1OCCN(Cc2n[nH]c(=O)[nH]2)[C@H]1c1ccc(F)cc1)c1cc(C(F)(F)F)cc(C(F)(F)F)c1 [Aprepitant] | – | – | – | – | – | – | – | – | – | – | – | – | – | – | – | – | – | – | – | – | Percentage of inhibition of cell cultures ([1]; Non Hodgkin Lymphoma B (diffuse B cell lymphoma), Group I (constitutively activated form of NK1 receptor)): 74±6%; Percentage of inhibition of cell cultures ([1]; Non Hodgkin Lymphoma T (diffuse T cell lymphoma), Group I (constitutively activated form of NK1 receptor)): 75±6%; Percentage of inhibition of cell cultures ([1]; Non Hodgkin Lymphoma T (diffuse T cell lymphoma), Group II (normal form of the receptor)): 96±4%; inhibition of tumor cell growth ([1]; group with little proliferating response when exposed to substance P (constitutively activated form of NK1 receptor), compared): higher inhibition
2 | CC(=O)N1CCN([C@H]2CCN(C(=O)N(C)[C@H](C)c3cc(C(F)(F)F)cc(C(F)(F)F)c3)[C@@H](c3ccc(F)cc3C)C2)CC1 [Casopitant] | 16 ± 2 | 47 ± 5 | 95 ± 3 | 34 ± 2 | 56 ± 4 | 93 ± 3 | 14 ± 2 | 46 ± 6 | 94 ± 5 | 36 ± 5 | 54 ± 5 | 92 ± 2 | 14 ± 3 | 49 ± 3 | 94 ± 4 | 33 ± 4 | 54 ± 4 | 91 ± 3 | 15 ± 3 | 46 ± 4 | inhibition at 1 µM (Melanoma; [5]): 93 ± 5%; inhibition at 1 µM (Melanoma; [6]): 34 ± 3%; inhibition at 1 µM (Melanoma; [7]): 52 ± 4%; inhibition at 1 µM (Melanoma; [8]): 93 ± 3%; inhibition at 1 µM [2, 3]: 17 ± 3%; inhibition at 1 µM [2, 4]: 45 ± 3%; inhibition at 1 µM [2, 5]: 94 ± 6%; inhibition at 1 µM [2, 6]: 34 ± 4%; inhibition at 1 µM [2, 7]: 56 ± 4%; inhibition at 1 µM [2, 8]: 93 ± 4%; inhibition at 100 µM (Glioma (astrocytoma); Cases with Kras mutated): 26 ± 4%; inhibition at 100 µM (Glioma (astrocytoma); [9]): 94 ± 6%
3 | Cc1cc(F)ccc1[C@H]1CNCCN1C(=O)N(C)[C@H](C)c1cc(C(F)(F)F)cc(C(F)(F)F)c1 [Vestipitant] | 17 ± 4 | 46 ± 3 | 94 ± 4 | 15 ± 3 | 48 ± 4 | 94 ± 5 | 13 ± 4 | 46 ± 4 | 93 ± 6 | 17 ± 2 | 48 ± 4 | 93 ± 5 | 14 ± 4 | 47 ± 4 | 95 ± 5 | 15 ± 3 | 46 ± 2 | 95 ± 4 | 16 ± 3 | 45 ± 4 | inhibition at 1 µM (Melanoma; [5]): 92 ± 6%; inhibition at 1 µM (Melanoma; [6]): 15 ± 3%; inhibition at 1 µM (Melanoma; [7]): 48 ± 4%; inhibition at 1 µM (Melanoma; [8]): 92 ± 4%; inhibition at 1 µM [2, 3]: 15 ± 3%; inhibition at 1 µM [2, 4]: 47 ± 4%; inhibition at 1 µM [2, 5]: 92 ± 5%; inhibition at 1 µM [2, 6]: 17 ± 3%; inhibition at 1 µM [2, 7]: 46 ± 3%; inhibition at 1 µM [2, 8]: 92 ± 3%; Percentage of inhibition of cell cultures (Glioma (astrocytoma); Cases with Kras mutated): 25±3 percentage; Percentage of inhibition of cell cultures (Glioma (astrocytoma); [9]): 97±5 percentage

Reference: patent EP2966448B1, “METHOD FOR THE PREDICTION OR PROGNOSIS OF THE RESPONSE OF A HUMAN SUBJECT SUFFERING FROM CANCER TO TREATMENT WITH AN ANTAGONIST OF THE NK1 RECEPTOR” (priority 2013, dated 2014)
